US10273228B2, “Hepatitis B viral assembly effectors” (Indiana University Research and Technology Corporation, priority 2015, dated 2019)
Where two headings read alike, the source gives them in different places.

Assays:
[1] = tested on: HBV viral load, AD38 cells; assay: Activity of test compounds on viral production from AD38 cells (viral load by quantitative PCR of the core sequence in supernatant); assay type: cell-based, Hepatitis B virus; details: 10 μM compound, 6 days at 37° C., vs DMSO control wells; for activity at 10 µM: Hepatitis B virus, 144 h, read-out: AD38 Viral Load (CpAM/DMSO %) at 10 μM
Protocol: (§1) AD38 cells were then re-suspended with 10 mL of treatment medium and counted. Wells of a collagen coated 96-well NUNC microtiter plate were seeded at 50,000/well in 180 μL of treatment medium, and 20 μL of either 10% DMSO (Control) or a 10× solution of test compound in 10% DMSO in treatment media was added for a final compound concentration 1, 3, or 10 μM (1.0% final [DMSO]) and plates were incubated for 6 days at 37° C.
Subsequently viral load production was assayed by quantitative PCR of the core sequence. Briefly, 5 μL of clarified supernatant was added to a PCR reaction mixture that contained forward primers HBV-f 5′-CTGTGCCTTGGGTGGCTTT-3′, Reverse primers HBV-r 5′-[…]-3′ and Fluorescent TaqMan™ Probes HBV-probe 5′-FAM/AGCTCCAAA/ZEN/[…]/3IABkFQ-3′ in Quanta Biosciences PerfeCTa® qPCR Toughmix®, and was subsequently on an Applied Biosystems VIIA7 in a final volume of 20 μL. The PCR mixture was incubated at 45° C. for 5 minutes, then 95° C. for 10 min, followed by 40 cycles of 10 seconds at 95° C. and 20 seconds at 60° C. Viral load was quantitated against known standards by using ViiA™ 7 Software. Viral load in the supernatant from wells with treated cells were compared against viral load in supernatant from DMSO control wells (≥3 per plate).

[2] = tested on: AD38 cells; assay: AD38 viability normalized to DMSO control; assay type: cell-based; details: 10 μM compound, vs DMSO control
Protocol: as §1

Structure (SMILES)	activity at 10 µM ([1]; Table 9) [%]	AD38 Viability Normalized Result (CPAM/DMSO %) at 10 μM ([2]; Table 9) [%]	activity at 10 µM ([1]; Table 6) [%]	AD38 Viability Normalized Result (CPAM/DMSO %) at 10 μM ([2]; Table 6) [%]	AD38 Viral Load (CpAM/DMSO %) at 10 μM ([1]; Table 9) [%]
COc1ccc(S(=O)(=O)N2CCN(c3nc(C)cc(Nc4ccc(C#N)cc4)n3)CC2=O)cc1 [Compound 1366, 4-((2-(4-((4-methoxyphenyl)sulfonyl)-3-oxopiperazin-1-yl)-6-methylpyrimidin-4-yl)amino) benzonitrile]	41	108	–	–	–
COc1ccc(S(=O)(=O)N2CCN(c3nc(Nc4ccc(C)cc4)cc(-c4ccccn4)n3)CC2)cc1 [Compound 1250, 2-(4-((4-methoxyphenyl)sulfonyl)piperazin-1-yl)-6-(pyridin-2-yl)-N-(p-tolyl) pyrimidin-4-amine]	–	–	56	101	–
COc1ccc(S(=O)(=O)N2CCN(c3nc(C)cc(Nc4cccnc4)n3)CC2)cc1 [Compound 1234]	–	–	82	101	–
Cc1ccc(Nc2cc(C)nc(N3CCN(S(=O)(=O)c4ccc(Oc5ccccc5)cc4)CC3)n2)cc1 [Compound 1136]	–	–	24	113	–
Cc1ccc(Nc2cc(C)nc(N3CCN(S(=O)(=O)c4ccc5[nH]c(=O)[nH]c5c4)CC3)n2)cc1 [Compound 1167]	–	–	36	108	–
COc1ccc(S(=O)(=O)N2CCN(c3nc(Nc4ccc(C)cc4)cc(NC(C)(C)C)n3)CC2)cc1 [Compound 1249]	–	–	31	65	–
Cc1ccc(S(=O)(=O)N2CCN(c3nc(Nc4ccc(F)cc4)cc(C(F)(F)F)n3)CC2)cc1 [Compound 1344]	2	0	–	–	–
O=S(=O)(c1ccc(F)cc1)N1CCN(c2nc(Oc3ccc(F)cc3)cc(-n3cnnc3)n2)CC1 [Compound 1307]	–	–	84	94	–
COc1ccc(S(=O)(=O)N2CCN(c3nc(Nc4ccc(C)cc4)cc(N4CCCCC4)n3)CC2)cc1 [Compound 1190]	–	–	72	83	–
O=S(=O)(c1ccc(OC(F)(F)F)cc1)N1CCN(c2nc(Nc3ccc(F)cc3)cc(C(F)(F)F)n2)CC1 [Compound 1340]	1	88	–	–	–
CN(C)c1cc(Oc2ccc(F)cc2)nc(N2CCN(S(=O)(=O)c3cccc(C(F)(F)F)c3)CC2)n1 [Compound 1289]	–	–	55	105	–
COc1ccc(S(=O)(=O)N2CCN(c3nc(C)cc(Nc4ccc(C#N)cc4)n3)CC2(C)C)cc1 [Compound 1376]	20	121	–	–	–
COc1ccc(S(=O)(=O)N2CCN(c3nc(C)cc(Nc4ccc5ccccc5c4)n3)CC2)cc1 [Compound 1188]	–	–	52	105	–
CC(C)c1cc(Oc2ccc(F)cc2)nc(N2CCN(S(=O)(=O)c3ccc(F)cc3)CC2)n1 [Compound 1295]	–	–	84	101	–
COC(=O)Cc1ccc(S(=O)(=O)N2CCN(c3nc(C)cc(Nc4ccc(F)cc4)n3)CC2)cc1 [Compound 1393, methyl 2-(4-((4-(4-((4-fluorophenyl)amino)-6-methylpyrimidin-2-yl)piperazin-1-yl)sulfonyl)phenyl) acetate]	–	102	–	–	79
CN(C)CCOc1ccc(S(=O)(=O)N2CCN(c3nc(Nc4ccc(F)cc4)cc(C(F)(F)F)n3)CC2)cc1 [Compound 1389, 2-(4-((4-(2-(dimethylamino)ethoxy)phenyl)sulfonyl)piperazin-1-yl)-N-(4-fluorophenyl)-6-(trifluoromethyl) pyrimidin-4-amine]	2	0	–	–	–
CC(C)c1cc(Oc2ccc(F)cc2)nc(N2CCN(S(=O)(=O)c3cccc(C(F)(F)F)c3)CC2)n1 [Compound 1287]	–	–	77	98	–
COC(=O)CCCOc1ccc(S(=O)(=O)N2CCN(c3nc(C)cc(Nc4ccc(F)cc4)n3)CC2)cc1 [Compound 1387, methyl 4-(4-((4-(4-((4-fluorophenyl)amino)-6-methylpyrimidin-2-yl)piperazin-1-yl)sulfonyl)phenoxy) butanoate]	19	107	–	–	–
O=S(=O)(c1ccc(F)cc1)N1CCN(c2nc(Nc3ccc(F)cc3)cc(-c3nccs3)n2)CC1 [Compound 1362]	54	88	–	–	–
C[C@H](Oc1ccc(S(=O)(=O)N2CCN(c3nc(Nc4ccc(F)cc4)cc(C(F)(F)F)n3)CC2)cc1)C(=O)O [Compound 1410, (S)-2-(4-((4-(4-((4-fluorophenyl)amino)-6-(trifluoromethyl)pyrimidin-2-yl)piperazin-1-yl)sulfonyl)phenoxy) propanoic acid]	14	58	–	–	–
COc1ccc(S(=O)(=O)N2CCN(c3nc(C)cc(Nc4ccc(C)nc4)n3)CC2)cc1 [Compound 1194]	–	–	64	109	–
N#Cc1ccc(Nc2cc(-c3nccs3)nc(N3CCN(S(=O)(=O)c4ccccc4)CC3)n2)cc1 [Compound 1355]	5	103	–	–	–
COc1ccc(S(=O)(=O)N2CCN(c3nc(Nc4ccc(C)cc4)cc(OCCO)n3)CC2)cc1 [Compound 1265, 2-((2-(4-((4-methoxyphenyl)sulfonyl)piperazin-1-yl)-6-(p-tolylamino)pyrimidin-4-yl)oxy) ethan-1-ol]	–	–	13	102	–
COc1ccc(S(=O)(=O)N2CCN(c3nc(C)cc(Nc4ccc(F)cc4)n3)C(C)C2)cc1 (stereo not drawn) [Compound 1371]	29	111	–	–	–
CCOc1ccc(S(=O)(=O)N2CCN(c3nc(C)cc(Nc4ccc(F)cc4)n3)CC2)cc1 [Compound 1336]	59	103	–	–	–
CC(C)c1cc(Oc2ccc(F)cc2)nc(N2CCN(S(=O)(=O)c3ccc(C(F)(F)F)cc3)CC2)n1 [Compound 1296]	–	–	102	103	–
COc1ccc(S(=O)(=O)N2CCN(c3nc(C)cc(Nc4cncnc4)n3)CC2)cc1 [Compound 1186]	–	–	76	106	–
